How the values were obtained:
CYP2C8 = molecular target: T1, CYP2C8 (Homo sapiens, UniProt P10632); experiment: Time-dependent inhibition of CYP450 enzymes in human liver microsomes: CYP2C8; assay type: in vitro ADME
T1 construct: from tissue; host or cells: pooled human liver microsomes
T1 sequence (P10632 1-490): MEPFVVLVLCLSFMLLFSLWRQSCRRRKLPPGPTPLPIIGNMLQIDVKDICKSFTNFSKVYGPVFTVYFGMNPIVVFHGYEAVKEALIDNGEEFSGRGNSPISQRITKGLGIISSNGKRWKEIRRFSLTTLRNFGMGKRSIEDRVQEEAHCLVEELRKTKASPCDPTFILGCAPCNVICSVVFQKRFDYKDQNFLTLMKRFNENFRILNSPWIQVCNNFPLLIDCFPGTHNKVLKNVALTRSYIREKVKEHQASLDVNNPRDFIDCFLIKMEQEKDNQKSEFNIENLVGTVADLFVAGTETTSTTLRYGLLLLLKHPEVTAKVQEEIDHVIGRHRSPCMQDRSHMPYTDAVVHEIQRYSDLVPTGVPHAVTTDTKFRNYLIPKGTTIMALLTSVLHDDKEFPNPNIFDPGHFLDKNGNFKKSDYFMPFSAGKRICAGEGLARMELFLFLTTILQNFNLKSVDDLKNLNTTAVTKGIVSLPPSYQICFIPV
Experimental: (§1) An assessment of the time-dependent Inhibitory Potential of the test compounds against Principal Human Cytochrome P450 Isozymes using Human Liver Microsomes was also carried out using standard methods (Grimm et al, Drug Metab. Dispos., Jul; 37(7):1355-70. doi: 10.1124/dmd.109.026716, 2009). Pooled human microsomes and selective CYP probe substrates were used for in vitro assessment of test compounds at 25 and 50 μM as time-dependent inhibitors of […] human hepatic cytochrome P450 isozymes (CYP1A2, 2B6, 2C9, 2C19, 2D6, and 3A4). LC-MS/MS was used to quantify metabolite formation. The inhibition of each P450 enzyme in human liver microsomes was measured as the percentage decrease in the activity of marker metabolite formation as measured by LC-MS/MS compared to non-inhibited controls (=100% activity) at time zero and after 30 minutes incubation. The occurrence of any time dependent inhibition was then expressed as the fold change in enzyme activity at time zero relative to the activity after 30 minutes incubation. The time dependent inhibition for the compound 5-(3,4-difluorobenzyl)-8-((1 r,4r)-4-methylcyclohexyl)-6,9-dioxo-2,5, 8-triazaspiro [3.5]nonane-2-carbaldehyde (Compound 1) against CYP1A2, […], CYP2C8, CYP2C9, CYP2C19, CYP2D6, CYP3A4-M and CYP3A4-T is shown in Table B-12.

CYP2D6 = molecular target: T2, CYP2D6 (Homo sapiens, UniProt P10635); experiment: Time-dependent inhibition of CYP450 enzymes in human liver microsomes: CYP2D6; assay type: in vitro ADME; settings: for fold change in activity (time dependent inhibition), 2D6: human liver microsomes
T2 construct: from tissue; host or cells: pooled human liver microsomes
T2 sequence (P10635 whole entry): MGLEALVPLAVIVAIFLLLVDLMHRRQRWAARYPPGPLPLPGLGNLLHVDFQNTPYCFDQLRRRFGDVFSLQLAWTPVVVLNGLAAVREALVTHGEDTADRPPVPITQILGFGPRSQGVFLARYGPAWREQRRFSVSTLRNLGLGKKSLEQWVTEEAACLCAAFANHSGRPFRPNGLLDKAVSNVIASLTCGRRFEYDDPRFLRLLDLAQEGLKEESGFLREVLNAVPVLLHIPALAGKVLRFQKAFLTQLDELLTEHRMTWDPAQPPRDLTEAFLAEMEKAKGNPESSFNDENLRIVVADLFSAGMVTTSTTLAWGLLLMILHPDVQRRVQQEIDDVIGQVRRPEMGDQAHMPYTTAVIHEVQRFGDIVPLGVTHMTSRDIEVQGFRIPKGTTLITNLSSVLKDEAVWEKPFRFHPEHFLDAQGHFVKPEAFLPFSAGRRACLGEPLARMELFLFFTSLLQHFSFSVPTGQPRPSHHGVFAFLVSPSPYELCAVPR
Experimental: as §1

CYP2C9 = molecular target: T3, CYP2C9 (Homo sapiens, UniProt P11712); experiment: Time-dependent inhibition of CYP450 enzymes in human liver microsomes: CYP2C9; assay type: in vitro ADME
T3 construct: from tissue; host or cells: pooled human liver microsomes
T3 sequence (P11712 whole entry): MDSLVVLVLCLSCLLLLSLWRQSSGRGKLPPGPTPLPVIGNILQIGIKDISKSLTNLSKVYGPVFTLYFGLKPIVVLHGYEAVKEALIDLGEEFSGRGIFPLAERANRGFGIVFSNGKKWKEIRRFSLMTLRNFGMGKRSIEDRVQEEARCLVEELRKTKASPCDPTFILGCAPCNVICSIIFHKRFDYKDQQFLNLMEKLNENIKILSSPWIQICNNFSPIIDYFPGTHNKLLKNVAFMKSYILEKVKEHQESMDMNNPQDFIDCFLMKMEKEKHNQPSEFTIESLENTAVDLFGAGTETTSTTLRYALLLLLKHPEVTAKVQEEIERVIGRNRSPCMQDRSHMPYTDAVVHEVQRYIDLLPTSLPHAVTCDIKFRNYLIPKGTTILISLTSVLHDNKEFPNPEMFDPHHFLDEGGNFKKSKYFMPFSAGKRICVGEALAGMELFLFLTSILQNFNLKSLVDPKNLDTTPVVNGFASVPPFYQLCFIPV
Experimental: as §1

[1] = Long-term storage stability of the solid (1, 3, 6 months); assay type: physicochemical
From the text: For long-term (1 month or longer) stability experiments, solid material was placed into LDPE bags and sealed in a HDPE container at elevated storage conditions, unless otherwise stated.

With `C[C@H]1CC[C@H](N2CC(=O)N(Cc3ccc(F)c(F)c3)C3(CN(C=O)C3)C2=O)CC1` [Compound 1, 5-(3,4-difluorobenzyl)-8-((1r,4r)-4-methylcyclohexyl)-6,9-dioxo-2,5,8-triazaspiro[3.5]nonane-2-carbaldehyde] the “(% Activity NADPH T0)/(% Activity NADPH T30)” value (CYP2C8; CYP2C8, 25 μM) was 1.0, the “(% Activity NADPH T0)/(% Activity NADPH T30)” value (CYP2C8; CYP2C8, 50 μM) was 1.2 and the activity at 30 min, 25 µM (CYP2C8; human, pooled human liver microsomes, CYP2C8, 25 μM, 30 minutes incubation, read-out: % Activity NADPH T30) was 80%. For the same molecule, the activity at 0 min, 25 µM (CYP2C8; human, pooled human liver microsomes, CYP2C8, 25 μM, time zero, read-out: % Activity NADPH T0) was 79%, the activity at 30 min, 50 µM (CYP2C8; human, pooled human liver microsomes, CYP2C8, 50 μM, 30 minutes incubation, read-out: % Activity NADPH T30) was 79% and the activity at 0 min, 50 µM (CYP2C8; human, pooled human liver microsomes, CYP2C8, 50 μM, time zero, read-out: % Activity NADPH T0) was 97%. For the same molecule, the “(% Activity NADPH T0)/(% Activity NADPH T30)” value (CYP2D6; CYP2D6, 25 μM) was 1.3, the “(% Activity NADPH T0)/(% Activity NADPH T30)” value (CYP2D6; CYP2D6, 50 μM) was 1.1 and the “fold change in activity (time dependent inhibition), 2D6” value (CYP2D6; 25 μM) was 1.3 fold. For the same molecule, the “fold change in activity (time dependent inhibition), 2D6” value (CYP2D6; 50 μM) was “no change in activity”, the activity at 30 min, 25 µM (CYP2D6; human, pooled human liver microsomes, CYP2D6, 25 μM, 30 minutes incubation, read-out: % Activity NADPH T30) was 90% and the activity at 0 min, 25 µM (CYP2D6; human, pooled human liver microsomes, CYP2D6, 25 μM, time zero, read-out: % Activity NADPH T0) was 118%. For the same molecule, the activity at 30 min, 50 µM (CYP2D6; human, pooled human liver microsomes, CYP2D6, 50 μM, 30 minutes incubation, read-out: % Activity NADPH T30) was 88%, the activity at 0 min, 50 µM (CYP2D6; human, pooled human liver microsomes, CYP2D6, 50 μM, time zero, read-out: % Activity NADPH T0) was 93% and the “(% Activity NADPH T0)/(% Activity NADPH T30)” value (CYP2C9; CYP2C9, 25 μM) was 1.0. For the same molecule, the “(% Activity NADPH T0)/(% Activity NADPH T30)” value (CYP2C9; CYP2C9, 50 μM) was 0.9, the activity at 30 min, 25 µM (CYP2C9; human, pooled human liver microsomes, CYP2C9, 25 μM, 30 minutes incubation, read-out: % Activity NADPH T30) was 84% and the activity at 0 min, 25 µM (CYP2C9; human, pooled human liver microsomes, CYP2C9, 25 μM, time zero, read-out: % Activity NADPH T0) was 83%. It also gave an activity at 30 min, 50 µM (CYP2C9; human, pooled human liver microsomes, CYP2C9, 50 μM, 30 minutes incubation, read-out: % Activity NADPH T30) of 71% and an activity at 0 min, 50 µM (CYP2C9; human, pooled human liver microsomes, CYP2C9, 50 μM, time zero, read-out: % Activity NADPH T0) of 63%.
Molecule `C[C@H]1CC[C@H](N2CC(=O)N(Cc3ccc(F)c(F)c3)C3(CN(C=O)C3)C2=O)CC1` [Form II, 5-(3,4-difluorobenzyl)-8-((1r,4r)-4-methylcyclohexyl)-6,9-dioxo-2,5,8-triazaspiro[3.5]nonane-2-carbaldehyde] has an Assay ([1]; 25° C./60% RH, 1 month) of 99.0 % w/w, a Purity ([1]; 25° C./60% RH, 1 month) of 99.1% and a Total Impurities ([1]; 25° C./60% RH, 1 month) of 0.92%. For the same molecule, the “Water Content” value ([1]; 25° C./60% RH, 1 month) was 0.02 % w/w, the Assay ([1]; 25° C./60% RH, 3 months) was 98.8 % w/w and the Purity ([1]; 25° C./60% RH, 3 months) was 99.1%. For the same molecule, the Total Impurities ([1]; 25° C./60% RH, 3 months) was 0.91%, the “Water Content” value ([1]; 25° C./60% RH, 3 months) was 0.01 % w/w and the Assay ([1]; 25° C./60% RH, 6 months) was 99.2 % w/w. For the same molecule, the Total Impurities ([1]; 25° C./60% RH, 6 months) was 0.93%, the “Water Content” value ([1]; 25° C./60% RH, 6 months) was 0.09 % w/w and the XRPD ([1]; 25° C./60% RH, 6 months) was “Form II”. The Assay ([1]; 40° C./75% RH, 1 month) was 98.6 % w/w, the Purity ([1]; 40° C./75% RH, 1 month) was 99.1% and the Total Impurities ([1]; 40° C./75% RH, 1 month) was 0.92%. For the same molecule, the “Water Content” value ([1]; 40° C./75% RH, 1 month) was 0.01 % w/w, the Assay ([1]; 40° C./75% RH, 3 months) was 97.9 % w/w and the Purity ([1]; 40° C./75% RH, 3 months) was 99.1%. For the same molecule, the Total Impurities ([1]; 40° C./75% RH, 3 months) was 0.9%, the “Water Content” value ([1]; 40° C./75% RH, 3 months) was 0.01 % w/w and the Assay ([1]; 40° C./75% RH, 6 months) was 99.5 % w/w. For the same molecule, the Total Impurities ([1]; 40° C./75% RH, 6 months) was 0.91%, the “Water Content” value ([1]; 40° C./75% RH, 6 months) was 0.06 % w/w and the XRPD ([1]; 40° C./75% RH, 6 months) was “Form II”. The Assay ([1]; Initial) was 99.1 % w/w, the Purity ([1]; Initial) was 99.1% and the Total Impurities ([1]; Initial) was 0.91%. The “Water Content” value ([1]; Initial) was 0.02 % w/w and the XRPD ([1]; Initial) was “Form II”.
